The NIST ThermoML archive (doi:10.1016/j.fluid.2014.01.019)

Assay: xn = mol fraction of the nth substance listed
Details: 101 kPa, Liquid; for mass density: Vibrating tube method; for speed of sound: Frequency=2 MHz, Linear variable-path acoustic interferometer

Cc1ccccc1Cl [2-chlorotoluene] + OCc1ccccc1
Details | mass density, 298.15 K [kg/m3] | mass density, 303.15 K [kg/m3] | mass density, 308.15 K [kg/m3] | mass density, 313.15 K [kg/m3] | speed of sound, 303.15 K [m/s] | speed of sound, 313.15 K [m/s]
x2 = 0.0507 | 1074.83 | 1071.16 | 1066.48 | 1061.94 | 1301 | 1296
x2 = 0.1134 | 1072.8 | 1068.97 | 1064.3 | 1059.77 | 1320 | 1308
x2 = 0.1507 | 1071.57 | 1067.66 | 1062.99 | 1058.47 | 1332 | 1316
x2 = 0.1894 | 1070.31 | 1066.29 | 1061.66 | 1057.14 | 1344 | 1325
x2 = 0.2477 | 1068.37 | 1064.25 | 1059.65 | 1055.13 | 1360 | 1336
x2 = 0.3059 | 1066.42 | 1062.2 | 1057.64 | 1053.16 | 1377 | 1348
x2 = 0.3686 | 1064.3 | 1060 | 1055.47 | 1051.04 | 1394 | 1360
x2 = 0.4535 | 1061.39 | 1057.02 | 1052.56 | 1048.18 | 1415 | 1377
x2 = 0.5385 | 1058.41 | 1054.04 | 1049.63 | 1045.3 | 1436 | 1393
x2 = 0.6309 | 1055.16 | 1050.78 | 1046.46 | 1042.2 | 1456 | 1411
x2 = 0.7003 | 1052.67 | 1048.32 | 1044.08 | 1039.89 | 1469 | 1426
x2 = 0.7723 | 1050.04 | 1045.77 | 1041.59 | 1037.48 | 1482 | 1442
x2 = 0.8537 | 1047.01 | 1042.88 | 1038.81 | 1034.72 | 1496 | 1458
x2 = 0.8902 | 1045.64 | 1041.6 | 1037.56 | 1033.55 | 1499 | 1466
x2 = 0.9547 | 1043.18 | 1039.28 | 1035.35 | 1031.4 | 1508 | 1478

Cc1ccccc1[N+](=O)[O-] [2-nitrotoluene] + OCc1ccccc1
Details | mass density, 298.15 K [kg/m3] | mass density, 303.15 K [kg/m3] | mass density, 308.15 K [kg/m3] | mass density, 313.15 K [kg/m3] | speed of sound, 303.15 K [m/s] | speed of sound, 313.15 K [m/s]
x2 = 0.0534 | 1153.93 | 1148.05 | 1144.09 | 1139.21 | 1444 | 1406
x2 = 0.1227 | 1146.45 | 1140.66 | 1136.63 | 1131.74 | 1449 | 1411
x2 = 0.1912 | 1138.96 | 1133.26 | 1129.16 | 1124.32 | 1454 | 1418
x2 = 0.2352 | 1134.11 | 1128.45 | 1124.35 | 1119.53 | 1458 | 1421
x2 = 0.2997 | 1126.89 | 1121.35 | 1117.19 | 1112.42 | 1462 | 1427
x2 = 0.3713 | 1118.76 | 1113.36 | 1109.17 | 1104.47 | 1467 | 1432
x2 = 0.4567 | 1108.91 | 1103.69 | 1099.48 | 1094.85 | 1474 | 1440
x2 = 0.5416 | 1098.93 | 1093.89 | 1089.68 | 1085.15 | 1480 | 1447
x2 = 0.6038 | 1091.49 | 1086.61 | 1082.42 | 1077.95 | 1485 | 1452
x2 = 0.6536 | 1085.47 | 1080.69 | 1076.51 | 1072.12 | 1489 | 1457
x2 = 0.7025 | 1079.47 | 1074.82 | 1070.68 | 1066.34 | 1493 | 1461
x2 = 0.743 | 1074.47 | 1069.91 | 1065.79 | 1061.49 | 1495 | 1464
x2 = 0.8128 | 1065.71 | 1061.34 | 1057.26 | 1053.06 | 1501 | 1471
x2 = 0.8551 | 1060.33 | 1056.07 | 1052.04 | 1047.91 | 1505 | 1474
x2 = 0.9351 | 1050 | 1045.96 | 1042.02 | 1038.01 | 1510 | 1481
